The values below come from US20250051363A1, “Substituted Pyrazolopyridines” (Neuro3 Therapeutics, Inc., priority 2023, published 2025).

Counter-ions that a name gives are not always drawn.

The assay deals with LRRK2 wild-type (Homo sapiens (Human), UniProt Q5S007). Put plainly: LanthaScreen LRRK2 Biochemical Activity Assay. To be noted: human recombinant LRRK2 (amino acids 970-2527) wild-type, ATP 57 μM, TR-FRET; read-out: IC50 (nM), inhibition of LRRK2 wild-type kinase activity. The protocol:
The ability of a compound of Formula (I) to inhibit LRRK2 kinase activity is measured using a LanthaScreen™ kinase activity assay. In general, in a LanthaScreen™ kinase activity assay, kinase, fluorescein-labeled substrate, and ATP are allowed to react. Then EDTA (to stop the reaction) and terbium-labeled antibody (to detect phosphorylated product) are added. In a LanthaScreen™ kinase reaction, the antibody associates with the phosphorylated fluorescein labeled substrate resulting in an increased TR-FRET value. The TR-FRET value is a dimensionless number that is calculated as the ratio of the acceptor (fluorescein) signal to the donor (terbium) signal. The amount of antibody that is bound to the tracer is directly proportional to the amount of phosphorylated substrate present, and in this manner, kinase activity can be detected and measured by an increase in the TR-FRET value. Accordingly, in this Example, enzyme reactions are carried out in a kinase reaction buffer in the presence or absence of representative compounds of Formula (I) at various concentrations in 384-well plate at room temperature for 60 minutes. The kinase reaction buffer contains human recombinant LRRK2 protein (amino acids 970-2527, 5 nM), ATP (57 μM for LRRK2 wild-type, 134 μM for G2019S mutant protein), Fluorescein-LRRKtide substrate (0.4 mM), 50 mM Tris pH 7.5, 10 mM MgCl2, 1 mM EGTA, 0.01% Brij™-35, and 2 mM DTT. The final reaction volume for each reaction is 10 μL. The reactions are initated by adding the substrate and stopped by the addition of 10 μL of a TR-FRET dilution buffer supplemented with a kinase quench buffer (10 mM EDTA final) and Tb-anti-pLRRKtide (2 nM final). The plate is further incubated at room temperature for another 60 minutes, and the fluorescent signals are read on an EnVision® multilabel plate reader (PerkinElmer, Waltham, MA) with excitation at 340 nm and emission at 495 and 520 nm. The assay signal is determined as a ratio of FRET-specific signal measured with emission filter at 520 nm to that of the signal measured with Tb-specific emission filter at 495 nm. IC50 values for compound-mediated enzyme inhibition are calculated using appropriate programs in GraphPad Prism software by plotting the logarithm of the compound concentrations versus percent inhibition. All reagents are purchased from Thermo Fisher Scientific.
Background: In TR-FRET formats the signal depends on donor and acceptor labels being close together.

LRRK2 wild-type, sequence (Q5S007 970-2527): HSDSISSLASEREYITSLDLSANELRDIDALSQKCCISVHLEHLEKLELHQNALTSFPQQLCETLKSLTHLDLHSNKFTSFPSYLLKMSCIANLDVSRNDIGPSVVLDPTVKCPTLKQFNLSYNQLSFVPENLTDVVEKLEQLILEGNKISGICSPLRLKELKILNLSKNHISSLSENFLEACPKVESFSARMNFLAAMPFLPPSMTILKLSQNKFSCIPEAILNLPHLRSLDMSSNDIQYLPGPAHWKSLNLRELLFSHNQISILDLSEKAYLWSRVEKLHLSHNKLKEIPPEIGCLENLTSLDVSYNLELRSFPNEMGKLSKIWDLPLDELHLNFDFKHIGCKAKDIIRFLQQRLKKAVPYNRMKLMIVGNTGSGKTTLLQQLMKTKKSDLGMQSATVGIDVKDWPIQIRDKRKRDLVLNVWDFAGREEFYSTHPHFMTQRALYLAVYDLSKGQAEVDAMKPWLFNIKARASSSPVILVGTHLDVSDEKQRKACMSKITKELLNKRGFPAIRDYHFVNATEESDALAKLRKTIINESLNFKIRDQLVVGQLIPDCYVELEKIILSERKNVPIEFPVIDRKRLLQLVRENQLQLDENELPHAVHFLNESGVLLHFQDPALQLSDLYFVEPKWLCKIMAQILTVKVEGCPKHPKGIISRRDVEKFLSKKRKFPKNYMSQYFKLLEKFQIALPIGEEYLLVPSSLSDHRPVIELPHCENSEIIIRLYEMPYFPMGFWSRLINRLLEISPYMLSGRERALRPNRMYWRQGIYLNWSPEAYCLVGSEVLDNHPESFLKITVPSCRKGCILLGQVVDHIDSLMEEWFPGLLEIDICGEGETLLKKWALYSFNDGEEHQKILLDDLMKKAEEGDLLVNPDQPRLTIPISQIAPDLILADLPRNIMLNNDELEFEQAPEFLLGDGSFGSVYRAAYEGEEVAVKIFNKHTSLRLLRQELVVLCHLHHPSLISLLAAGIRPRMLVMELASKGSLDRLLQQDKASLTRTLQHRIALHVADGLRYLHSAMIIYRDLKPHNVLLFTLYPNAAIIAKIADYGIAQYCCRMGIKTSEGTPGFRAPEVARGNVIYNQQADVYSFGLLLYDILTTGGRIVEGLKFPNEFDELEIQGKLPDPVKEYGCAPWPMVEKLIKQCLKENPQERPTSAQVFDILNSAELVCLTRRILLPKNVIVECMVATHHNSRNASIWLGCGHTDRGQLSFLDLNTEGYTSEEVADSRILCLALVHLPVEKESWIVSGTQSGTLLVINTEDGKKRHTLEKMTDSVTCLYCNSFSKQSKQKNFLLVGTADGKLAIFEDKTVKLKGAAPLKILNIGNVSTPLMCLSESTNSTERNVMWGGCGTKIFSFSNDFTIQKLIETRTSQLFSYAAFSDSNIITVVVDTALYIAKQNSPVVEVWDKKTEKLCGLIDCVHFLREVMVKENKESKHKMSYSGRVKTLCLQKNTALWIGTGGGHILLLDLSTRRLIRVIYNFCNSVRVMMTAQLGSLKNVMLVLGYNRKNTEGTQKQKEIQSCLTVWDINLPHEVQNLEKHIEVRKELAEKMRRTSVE

For the compound `c1cc(-c2cnn3ccccc23)nc(C2CCNC2)c1` (stereo not drawn) [Example 3, 3-(6-pyrrolidin-3-yl-2-pyridyl)pyrazolo[1,5-a]pyridine], the half-inhibitory concentration (IC50) – broadly, the point on the concentration scale where inhibition reaches its midpoint – was 101 to 400 nM.

For the compound `C[C@H]1CN(c2cccc(-c3cnn4ccccc34)n2)CCN1` [Example 70, (S)-3-(6-(3-methylpiperazin-1-yl)pyridin-2-yl)pyrazolo[1,5-a]pyridine formate], the IC50 was 11 to 100 nM.

Regarding `Clc1ccn2ncc(-c3cccc(C4CCNC4)n3)c2c1` (stereo not drawn) [Example 4, 5-chloro-3-(6-(pyrrolidin-3-yl)pyridin-2-yl)pyrazolo[1,5-a]pyridine], the IC50 lay in the range of 11 to 100 nM.

Turning to `C[C@@H]1CN(c2nc(-c3cnn4ccc(Cl)cc34)ccc2F)C[C@H](C)N1` [Example 61, 5-chloro-3-[6-[(3S,5R)-3,5-dimethylpiperazin-1-yl]-5-fluoro-2-pyridyl]pyrazolo[1,5-a]pyridine], the half-inhibitory concentration (IC50) was at most 10 nM.

Regarding `CS(=O)(=O)NCCC(=O)Nc1ccc2c(-c3cccc(C4CCCNC4)n3)cnn2c1` (stereo not drawn) [Example 23, 3-(methanesulfonamido)-N-[3-[6-(3-piperidyl)-2-pyridyl]pyrazolo[1,5-a]pyridin-6-yl]propanamide], the IC50 fell in the range of 101 to 400 nM.

Regarding `C[C@@H]1CN(c2cccc(-c3cnn4ccccc34)n2)C[C@@H](C)N1` [Example 50, 3-[6-[(3R,5R)-3,5-dimethylpiperazin-1-yl]-2-pyridyl]pyrazolo[1,5-a]pyridine], the IC50 lay within 11 to 100 nM.

With `Clc1ccn2ncc(-c3cccc(C4CCCNC4)n3)c2c1` (racemic) [Example 5, Rac-5-chloro-3-[6-(3-piperidyl)-2-pyridyl]pyrazolo[1,5-a]pyridine], the IC50 was in the range of 11 to 100 nM.

As for `Fc1cc(-c2cnn3ccc(Cl)cc23)nc(C2CCCNC2)c1` (stereo not drawn) [Example 35], the IC50 lay in the range of 11 to 100 nM.

Turning to `Cc1ccn2ncc(-c3cccc(C4CCCNC4)n3)c2c1` (stereo not drawn) [Example 9, 5-methyl-3-[6-(3-piperidyl)-2-pyridyl]pyrazolo[1,5-a]pyridine], the IC50 lay within 11 to 100 nM.

Turning to `Clc1ccc(C2CCCNC2)nc1-c1cnn2ccccc12` (stereo not drawn) [Example 30, 3-(3-chloro-6-(piperidin-3-yl)pyridin-2-yl)pyrazolo[1,5-a]pyridine], the IC50 fell in the range of 101 to 400 nM.

As for `C[C@@H]1CN(c2cc(Cl)cc(-c3cnn4ccccc34)n2)C[C@H](C)N1` [Example 51, 3-[4-chloro-6-[(3S,5R)-3,5-dimethylpiperazin-1-yl]-2-pyridyl]pyrazolo[1,5-a]pyridine], the half-inhibitory concentration (IC50) was in the range of 11 to 100 nM.

As to `Clc1ccn2ncc(-c3cccc([C@H]4CCCNC4)n3)c2c1` (single isomer, unassigned) [Example 7, (−)-5-chloro-3-(6-(piperidin-3-yl)pyridin-2-yl)pyrazolo[1,5-a]pyridine], the IC50 was at most 10 nM.

In the case of `CNc1ccn2ncc(-c3cccc(C4CCCNC4)n3)c2c1` (stereo not drawn) [Example 20, N-methyl-3-[6-(3-piperidyl)-2-pyridyl]pyrazolo[1,5-a]pyridin-5-amine], the IC50 was at most 10 nM.

For `N#CCC(=O)Nc1ccn2ncc(-c3cccc(C4CCCNC4)n3)c2c1` (stereo not drawn) [Example 77, 2-cyano-N-(3-(6-(piperidin-3-yl)pyridin-2-yl)pyrazolo[1,5-a]pyridin-5-yl)acetamide], the IC50 was 11 to 100 nM.

`O=C(Nc1ccn2ncc(-c3cccc(C4CCCNC4)n3)c2c1)c1ccccn1` (stereo not drawn) [Example 72, N-(3-(6-(piperidin-3-yl)pyridin-2-yl)pyrazolo[1,5-a]pyridin-5-yl)picolinamide]: the IC50 lay within 11 to 100 nM.

For `c1cc(-c2cnn3ccccc23)nc(C2CCNCC2)c1` [Example 1, 3-[6-(4-piperidyl)-2-pyridyl]pyrazolo[1,5-a]pyridine], the IC50 lay within 101 to 400 nM.

As to `CCNc1ccn2ncc(-c3cccc(C4CCCNC4)n3)c2c1` (stereo not drawn) [Example 21, N-ethyl-3-[6-(3-piperidyl)-2-pyridyl]pyrazolo[1,5-a]pyridin-5-amine], the IC50 lay in the range of 11 to 100 nM.

Regarding `Clc1cc(-c2cnn3ccc(Cl)cc23)nc(C2CCCNC2)c1` (stereo not drawn) [Example 34, 5-chloro-3-[4-chloro-6-(3-piperidyl)-2-pyridyl]pyrazolo[1,5-a]pyridine], the IC50 is 11 to 100 nM.

For `Clc1ccn2ncc(-c3cccc([C@@H]4CCCNC4)n3)c2c1` (single isomer, unassigned) [Example 6, (+)-5-chloro-3-(6-(piperidin-3-yl)pyridin-2-yl)pyrazolo[1,5-a]pyridine], the half-maximal inhibitory concentration (IC50) fell in the range of 101 to 400 nM.

For `FC(F)(F)c1ccn2ncc(-c3cccc(C4CCCNC4)n3)c2c1` (stereo not drawn) [Example 10, 3-[6-(3-piperidyl)-2-pyridyl]-5-(trifluoromethyl)pyrazolo[1,5-a]pyridine], the IC50 fell in the range of 11 to 100 nM.

As for `C[C@@H]1CN(c2cccc(-c3cnn4ccc(C(F)(F)F)cc34)n2)C[C@H](C)N1` [Example 55, 3-[6-[(3S,5R)-3,5-dimethylpiperazin-1-yl]-2-pyridyl]-5-(trifluoromethyl)pyrazolo[1,5-a]pyridine], the IC50 is at most 10 nM.

For `COc1cc(-c2cnn3ccccc23)nc(C2CCCNC2)c1` (stereo not drawn) [Example 27, 3-(4-methoxy-6-(piperidin-3-yl)pyridin-2-yl)pyrazolo[1,5-a]pyridine], the 50% inhibitory concentration (IC50) fell in the range of 101 to 400 nM.

Turning to `CNc1ccn2ncc(-c3cc(Cl)cc(N4C[C@@H](C)N[C@@H](C)C4)n3)c2c1` [Example 54, 3-[4-chloro-6-[(3S,5R)-3,5-dimethylpiperazin-1-yl]-2-pyridyl]-N-methyl-pyrazolo[1,5-a]pyridin-5-amine], the IC50 lay within 11 to 100 nM.

With `C[C@@H]1CN(c2nc(-c3cnn4ccc(Cl)cc34)ccc2Cl)C[C@H](C)N1` [Example 60, 5-chloro-3-[5-chloro-6-[(3S,5R)-3,5-dimethylpiperazin-1-yl]-2-pyridyl]pyrazolo[1,5-a]pyridine], the IC50 was 101 to 400 nM.

Take `CN1CCC(c2cccc(-c3cnn4ccccc34)n2)CC1` [Example 2, 3-[6-(1-methyl-4-piperidyl)-2-pyridyl]pyrazolo[1,5-a]pyridine]: the IC50 lay in the range of 101 to 400 nM.

In the case of `CS(=O)(=O)NCCC(=O)Nc1ccn2ncc(-c3cccc(C4CCCNC4)n3)c2c1` (stereo not drawn) [Example 22, 3-(methylsulfonamido)-N-(3-(6-(piperidin-3-yl)pyridin-2-yl)pyrazolo[1,5-a]pyridin-5-yl)propanamide], the IC50 lay in the range of 11 to 100 nM.

As for `c1cc(-c2cnn3ccccc23)nc(N2CCNCC2)c1` [Example 37, 3-(6-piperazin-1-yl-2-pyridyl)pyrazolo[1,5-a]pyridine], the IC50 fell in the range of 101 to 400 nM.

As for `Clc1cc(-c2cnn3ccc(Cl)cc23)nc(N2CCNCC2)c1` [Example 43, 5-chloro-3-(4-chloro-6-piperazin-1-yl-2-pyridyl)pyrazolo[1,5-a]pyridine], the IC50 was 11 to 100 nM.

`CC1(C)CN(c2cccc(-c3cnn4ccc(Cl)cc34)n2)CC(C)(C)N1` [Example 66, 5-chloro-3-[6-(3,3,5,5-tetramethylpiperazin-1-yl)-2-pyridyl]pyrazolo[1,5-a]pyridine]: the IC50 is at most 10 nM.

Regarding `FC(F)(F)c1ccn2ncc(-c3cc(Cl)cc(C4CCCNC4)n3)c2c1` (stereo not drawn) [Example 36, 3-(4-chloro-6-(piperidin-3-yl)pyridin-2-yl)-5-(trifluoromethyl)pyrazolo[1,5-a]pyridine], the IC50 is 11 to 100 nM.

Take `O=C(CNc1ccncc1)Nc1ccn2ncc(-c3cccc(C4CCCNC4)n3)c2c1` (stereo not drawn) [Example 79, N-(3-(6-(piperidin-3-yl)pyridin-2-yl)pyrazolo[1,5-a]pyridin-5-yl)-2-(pyridin-4-ylamino)acetamide]: the IC50 was in the range of 11 to 100 nM.

As for `c1cc(-c2cnn3ccc(C4CC4)cc23)nc(C2CCCNC2)c1` (stereo not drawn) [Example 18, 5-cyclopropyl-3-[6-(3-piperidyl)-2-pyridyl]pyrazolo[1,5-a]pyridine], the IC50 fell in the range of 11 to 100 nM.

For `CC(C)Oc1ccn2ncc(-c3cc(Cl)cc(C4CCCNC4)n3)c2c1` (stereo not drawn) [Example 65, 3-[4-chloro-6-(3-piperidyl)-2-pyridyl]-5-isopropoxy-pyrazolo[1,5-a]pyridine], the IC50 was at most 10 nM.

As for `Clc1cc(-c2cnn3ccccc23)nc(C2CCCNC2)c1` (stereo not drawn) [Example 28, 3-(4-chloro-6-(piperidin-3-yl)pyridin-2-yl)pyrazolo[1,5-a]pyridine], the IC50 was in the range of 11 to 100 nM.

Take `CS(=O)(=O)N1CCCC(c2cccc(-c3cnn4ccccc34)n2)C1` (stereo not drawn) [Example 26, 3-[6-(1-methylsulfonyl-3-piperidyl)-2-pyridyl]pyrazolo[1,5-a]pyridine]: the IC50 was in the range of 101 to 400 nM.

As for `CNc1ccn2ncc(-c3cccc(N4CCNCC4)n3)c2c1` [Example 38, N-methyl-3-(6-piperazin-1-yl-2-pyridyl)pyrazolo[1,5-a]pyridin-5-amine], the IC50 lay within 11 to 100 nM.
